Laboratory results taken from article PMC6680510, “Benzotriazine Di-Oxide Prodrugs for Exploiting Hypoxia and Low Extracellular pH in Tumors” (Molecules, 2019).
“And” between values parts separate entries of the source, which are not always exact repeats. Equal entries are not always repeated.

Key:
SiHa cells = assay: IC50 assay modified for chronic hypoxia (oxia, hypoxia, anoxia); assay type: cell-based; conditions: for IC50: Homo sapiens
Method: There are relatively few viable cells in tumors at O2 concentrations as low as in the above anoxic experiments. In addition, extensive changes in gene expression occur under chronic exposure to intermediate O2 concentrations (chronic hypoxia), including the expression of proteins that regulate pHi. […] Therefore, oxic and anoxic exposures were also tested in these same experiments. The 24 h adaptation to hypoxia had little effect on the subsequent growth of the cultures at either pHe value (Figure S6).
To minimize problems with poor cell attachment under chronic hypoxia, the drugs were added from a 3-fold dilution series made in a separate plate, rather than by serial dilution in the plates containing the cells. In addition, the drugs were removed after the 4 h exposure by centrifuging the plates (200g × 5 min) prior to each aspiration. The same modifications were used for the oxic drug exposures in these experiments.

[1] = One-electron reduction potentials by pulse radiolysis; assay type: physicochemical; conditions: pH 7.0, equilibrium with redox indicator shown in square brackets
How it was run: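 Redox equilibria at pH 7.0 (2.5 mM phosphate) established within 50 μs between one-electron reduced compound and viologen references MV^2+, TQ^2+ or V21^2+, generated by 4 MeV linac pulse radiolysis with time-resolved optical absorption. E^0′ vs NHE derived via Nernst equation from equilibrium constants, corrected for ionic strength.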

With O=C(O)CCc1n[n+]([O-])c2ccccc2[n+]1[O-] [Compound 4a, 3-(2-Carboxyethyl)benzo[e][1,2,4]triazine 1,4-Dioxide] the “PCR (IC50 for pHe 7.4/IC50 for pHe 6.5)” value (SiHa cells; 0.2% O2) was 1.39 ± 0.19, the “PCR (IC50 for pHe 7.4/IC50 for pHe 6.5)” value (SiHa cells; 20% O2) was 1.98 ± 0.93 and the “PCR (IC50 for pHe 7.4/IC50 for pHe 6.5)” value (SiHa cells; <0.01% O2) was 1.86 ± 0.59. The IC50 (SiHa cells; 0.2% O2 (24 h before and during 4 h exposure), pHe 6.5) was 308 ± 1 µM, the IC50 (SiHa cells; 0.2% O2 (24 h before and during 4 h exposure), pHe 7.4) was 428 ± 57 µM and the IC50 (SiHa cells; 4 h, 20% O2, pHe 6.5, 4 h) was 707 ± 321 µM. The IC50 (SiHa cells; 4 h, 20% O2, pHe 7.4, 4 h) was 1400 ± 162 µM, the IC50 (SiHa cells; 4 h, <0.01% O2, pHe 6.5, 4 h) was 160 ± 45 µM and the IC50 (SiHa cells; 4 h, <0.01% O2, pHe 7.4, 4 h) was 298 ± 44 µM. For the same compound, the “ACR (IC50 for 20% O2/IC50 for <0.01% O2)” value (SiHa cells; pHe 6.5) was 4.42 ± 2.36, the “HCR (IC50 for 20% O2/IC50 for 0.2% O2)” value (SiHa cells; pHe 6.5) was 2.30 ± 1.04 and the “ACR (IC50 for 20% O2/IC50 for <0.01% O2)” value (SiHa cells; pHe 7.4) was 4.70 ± 0.88. The “HCR (IC50 for 20% O2/IC50 for 0.2% O2)” value (SiHa cells; pHe 7.4) was 3.28 ± 0.58 and the “E^0′ one-electron reduction potential” value [1] was −399 mV and −399 ± 7 [MV^2+] mV.
